Here are results for 61 molecules from patent US7208505B2, “β3 adrenergic agonists” (Eli Lilly and Company, priority 2001, dated 2007).

The structures appear in SMILES notation.

The test has as its target T1, human β3 adrenergic receptor (Homo sapiens, UniProt P13945).
T1 construct: expressed in transfected cells
Kind of test: whole cell receptor coupled c-AMP assay (Emax relative to isoproterenol). In kind it is cell-based. Conditions: transfected CHO cells. In short, it runs like this:
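Stably transfected CHO DXB-11 cells expressing human β3 receptor incubated 20 min at 37 °C with compound in HBSS/HEPES pH 7.4 containing 1 mM IBMX. cAMP measured by SPA; four-parameter logistic fit, Emax = maximal response as % of isoproterenol maximum.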

[1] abbreviates: % intrinsic activity: maximal response divided by isoproterenol maximal response times 100, average of at least 3 runs.
Setting [2] is: % intrinsic activity relative to isoproterenol.
The mark [3] stands for this setting: CHO, % intrinsic activity relative to isoproterenol.

T1 sequence (P13945 whole entry): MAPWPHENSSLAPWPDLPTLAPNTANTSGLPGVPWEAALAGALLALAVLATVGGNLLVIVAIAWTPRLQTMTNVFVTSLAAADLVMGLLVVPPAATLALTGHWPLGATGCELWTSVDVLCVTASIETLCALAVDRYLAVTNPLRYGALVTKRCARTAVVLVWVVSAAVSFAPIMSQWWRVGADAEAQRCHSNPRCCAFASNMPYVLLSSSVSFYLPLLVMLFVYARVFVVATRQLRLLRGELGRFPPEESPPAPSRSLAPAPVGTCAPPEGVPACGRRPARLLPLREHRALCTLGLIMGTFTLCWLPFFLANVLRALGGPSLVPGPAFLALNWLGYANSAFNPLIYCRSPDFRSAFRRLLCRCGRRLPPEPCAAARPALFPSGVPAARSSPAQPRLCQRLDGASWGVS

Turning to `C[C@H](NC[C@H](O)COc1ccccc1-c1cccs1)C(=O)N1CCc2ccccc21` [Example 130], the “Emax (%) ± SEM” value under setting [1] worked out at 36.3 ± 1.8%. On to `C[C@@H](NC[C@H](O)COc1ccccc1-c1cccs1)C(=O)N1CCc2ccccc21` [Example 131], for which the “Emax (%) ± SEM” value under setting [1] was 23.6 ± 1.7%. With `CC(C)(Cc1c[nH]c2c(OCC#N)cccc12)NC[C@H](O)COc1ccccc1-c1ccon1` [Example 132], the “Emax (%) ± SEM” value under setting [1] is given as 53.6 ± 1.4%. `CC(C)(Cc1c[nH]c2c(OCC#N)cccc12)NC[C@H](O)COc1ccccc1-c1ccon1` [Example 133]: the “Emax (%) ± SEM” value under setting [1] is recorded as 60.6 ± 2.4%. Regarding `CC(C)(Cc1c[nH]c2c(OCC#N)cccc12)NC[C@H](O)COc1ccccc1-c1cccs1` [Example 137], the “Emax (%) ± SEM” value under setting [1] came to 65.5 ± 4.7%. As for `CC(C)(Cc1c[nH]c2c(C=CC(N)=O)cccc12)NCC(O)COc1ccccc1-c1cccs1` (stereo not shown) [Example 139], the “Emax (%) ± SEM” value under setting [1] was determined as 86.5 ± 5.5%. Take `CC(C)(Cc1c[nH]c2c(CCC(N)=O)cccc12)NC[C@H](O)COc1ccccc1-c1cccs1` [Example 140]: the “Emax (%) ± SEM” value under setting [1] was determined as 83.5 ± 2.7%.

On to `CC(C)(Cc1c[nH]c2c(C=CS(C)(=O)=O)cccc12)NCC(O)COc1ccccc1-c1cccs1` (stereo not shown) [Example 141], for which the “Emax (%) ± SEM” value under setting [1] is 65.0 ± 2.0%. `CC(C)(Cc1c[nH]c2c(CCS(C)(=O)=O)cccc12)NC[C@H](O)COc1ccccc1-c1cccs1` [Example 142]: under setting [1], the “Emax (%) ± SEM” value turned out to be 82.1 ± 1.4%. With `CC(C)(Cc1c[nH]c2c(C=CC#N)cccc12)NCC(O)COc1ccccc1-c1cccs1` (stereo not shown) [Example 143], the “Emax (%) ± SEM” value under setting [1] is reported as 66.4 ± 8.7%. Turning to `CC(C)(Cc1c[nH]c2c(CCC#N)cccc12)NC[C@H](O)COc1ccccc1-c1cccs1` [Example 144], the “Emax (%) ± SEM” value under setting [1] is on record as 73.3 ± 5.9%. On to `COC(=O)CCc1cccc2c(CC(C)(C)NC[C@H](O)COc3ccccc3-c3cccs3)c[nH]c12` [Example 145], for which the “Emax (%) ± SEM” value under setting [1] was 79.3 ± 7.1%.

In the case of `CC(C)(Cc1c[nH]c2c(C=Cn3cncn3)cccc12)NCC(O)COc1ccccc1-c1cccs1` (stereo not shown) [Example 146], the “Emax (%) ± SEM” value under setting [1] is recorded as 47.3 ± 2.3%. On the same count and under the same terms, under `C[C@H](Cn1ccc2c(OCC#N)cccc21)NC[C@H](O)COc1ccccc1-c1ccon1` [Example 150] stands 46.6 ± 1.9%; under `C[C@H](Cn1ccc2c(OCC#N)cccc21)NC[C@H](O)COc1ccccc1-c1ccns1` [Example 151], 52.4 ± 4.3%. The same measure, in the same setting: in the case of `C[C@H](Cn1ccc2c(OCC#N)cccc21)NC[C@H](O)COc1ccccc1-c1cccs1` [Example 152] it was 63.1 ± 4.4%; in that of `COC(=O)c1cccc2c1ccn2C[C@@H](C)NC[C@H](O)COc1ccccc1-c1cccs1` [Example 153], 45.2 ± 8.4%. As for `COC(=O)c1ccc2c(ccn2C[C@@H](C)NC[C@H](O)COc2ccccc2-c2cccs2)c1` [Example 154], the “Emax (%) ± SEM” value under setting [1] amounted to 32.4 ± 8.1%. The same measure, in the same setting: under `C[C@H](Cn1ccc2cc(OCC#N)ccc21)NC[C@H](O)COc1ccccc1-c1cccs1` [Example 155] stands 58.7 ± 13.4%. On to `Cc1cc2c(OCC#N)cccc2n1C[C@@H](C)NC[C@H](O)COc1ccccc1-c1cccs1` [Example 156], for which the “Emax (%) ± SEM” value under setting [1] was 41.9 ± 9.3%. Regarding `CC(C)(Cc1c[nH]c2ccccc12)NC[C@H](O)COc1ccccc1-c1cccs1` [Example 157], the “Emax (%) ± SEM” value under setting [1] was 51.3 ± 7.8%. As to `CC(C)(Cc1c[nH]c2cc(F)ccc12)NC[C@H](O)COc1ccccc1-c1cccs1` [Example 158], under setting [1], the “Emax (%) ± SEM” value worked out at 69.6 ± 4.8%. In the case of `CC(C)(Cc1c[nH]c2cc(F)ccc12)NC[C@H](O)COc1ccccc1-c1nccs1` [Example 159], the “Emax (%) ± SEM” value under setting [1] was 53.0 ± 1.8%. On the same count and under the same terms, under `CC(C)(Cc1c[nH]c2c(OCC#N)cccc12)NC[C@H](O)COc1ccccc1-c1nncs1` [Example 160] stands 44.3 ± 3.9%; under `C[C@@H](Cc1c[nH]c2c(OCC#N)cccc12)NC[C@H](O)COc1ccccc1-c1nncs1` [Example 161], 21.7 ± 3.1%. Regarding `CC(C)(Cc1c[nH]c2cccc(F)c12)NC[C@H](O)COc1ccccc1-c1cccs1` [Example 162], the “Emax (%) ± SEM” value under setting [1] came to 64.2 ± 7.6%. Regarding `CC(C)(Cc1c[nH]c2ccc(F)cc12)NC[C@H](O)COc1ccccc1-c1cccs1` [Example 163], the “Emax (%) ± SEM” value under setting [1] was found to be 57.1 ± 5.8%. In the case of `CC(C)(Cc1c[nH]c2ccccc12)NC[C@H](O)COc1ccccc1-c1ccon1` [Example 164], the “Emax (%) ± SEM” value under setting [1] is 53.9 ± 2.6%. `C[C@H](Cn1ccc2ccccc21)NC[C@H](O)COc1ccccc1-c1ccon1` [Example 165]: the “Emax (%) ± SEM” value under setting [1] was 37.1 ± 4.0%. Take `CC(C)(Cc1c[nH]c2cccc(F)c12)NC[C@H](O)COc1ccccc1-c1ccon1` [Example 166]: under setting [1], the “Emax (%) ± SEM” value is recorded as 47.8 ± 0.6%. On to `CC(C)(Cc1c[nH]c2ccc(F)cc12)NC[C@H](O)COc1ccccc1-c1ccon1` [Example 167], for which the “Emax (%) ± SEM” value under setting [1] is 40.8 ± 1.3%. In the case of `CC(C)(Cc1c[nH]c2cc(OCC#N)ccc12)NC[C@H](O)COc1ccccc1-c1cccs1` [Example 168], under setting [1], the “Emax (%) ± SEM” value was found to be 62.1 ± 3.3%. Turning to `CC(C)(Cc1c[nH]c2ccc(OCC#N)cc12)NC[C@H](O)COc1ccccc1-c1cccs1` [Example 169], the “Emax (%) ± SEM” value under setting [1] amounted to 51.9 ± 3.4%. Regarding `CC(C)(Cc1c[nH]c2c(F)cccc12)NC[C@H](O)COc1ccccc1-c1cccs1` [Example 170], under setting [1], the “Emax (%) ± SEM” value was 71.2 ± 1.2%. As for `CC(C)(Cc1c[nH]c2c(F)cccc12)NC[C@H](O)COc1ccccc1-c1nccs1` [Example 171], under setting [1], the “Emax (%) ± SEM” value turned out to be 56.0 ± 1.5%. For the molecule `CC(C)(Cc1c[nH]c2cc(F)ccc12)NC[C@H](O)COc1ccccc1-c1ccon1` [Example 172], the “Emax (%) ± SEM” value under setting [1] stood at 55.0 ± 1.1%. Still for that read-out and setting: under `CC(C)(Cc1c[nH]c2c(F)cccc12)NC[C@H](O)COc1ccccc1-c1ccon1` [Example 173] stands 50.2 ± 1.5%; under `CC(C)(Cc1c[nH]c2c(C(N)=O)cccc12)NC[C@H](O)COc1ccccc1-c1cccs1` [Example 174], 57.6 ± 0.6%. As to `CC(C)(Cc1c[nH]c2c(C(N)=O)cccc12)NC[C@H](O)COc1ccccc1-c1ccon1` [Example 175], the “Emax (%) ± SEM” value under setting [1] is 41.1 ± 3.5%. In the case of `CC(C)(Cc1c[nH]c2c(OCC(=O)NS(C)(=O)=O)cccc12)NC[C@H](O)COc1ccccc1-c1cccs1` [Example 176], under setting [1], the “Emax (%) ± SEM” value is 79.0 ± 2.9%.

With `CC(C)(Cc1c[nH]c2c(OCCNS(C)(=O)=O)cccc12)NC[C@H](O)COc1ccccc1-c1cccs1` [Example 177], the “Emax (%) ± SEM” value under setting [1] is on record as 73.8 ± 1.5%. Consider `COC(=O)c1ccc(-c2cccc3c(CC(C)(C)NC[C@H](O)COc4ccccc4-c4cccs4)c[nH]c23)cc1` [Example 178], for which, under setting [1], the “Emax (%) ± SEM” value was found to be 72.5 ± 2.2%.

In the case of `CC(=O)Nc1ccc(-c2cccc3c(CC(C)(C)NC[C@H](O)COc4ccccc4-c4cccs4)c[nH]c23)cc1` [Example 179], the “Emax (%) ± SEM” value under setting [1] is 71.5 ± 1.1%. `COC(=O)c1ccc(-c2cccc3c(CC(C)(C)NC[C@H](O)COc4ccccc4-c4cccs4)c[nH]c23)s1` [Example 181]: the “Emax (%) ± SEM” value under setting [1] was found to be 39.6 ± 0.7%.

Take `CC(=O)Nc1ccc(-c2cccc3c(CC(C)(C)NC[C@H](O)COc4ccccc4-c4ccon4)c[nH]c23)cc1` [Example 183]: the “Emax (%) ± SEM” value under setting [1] is recorded as 47.7 ± 1.6%.

`CC(C)(Cc1c[nH]c2c(C=Cn3ccnc3)cccc12)NC[C@H](O)COc1ccccc1-c1cccs1` [Example 186]: the “Emax (%) ± SEM” value under setting [1] is recorded as 66.5 ± 0.4%.

On to `CC(C)(Cc1c[nH]c2c(CCc3ccc(C#N)cc3)cccc12)NC[C@H](O)COc1ccccc1-c1cccs1` [Example 187], for which the “Emax (%) ± SEM” value under setting [1] is given as 77.9 ± 0.7%. `CC(C)(Cc1c[nH]c2c(C=Cc3cnccn3)cccc12)NC[C@H](O)COc1ccccc1-c1cccs1` [Example 188]: the “Emax (%) ± SEM” value under setting [1] turned out to be 70.5 ± 3.8%. Regarding `CC(C)(Cc1c[nH]c2c(C=Cc3ccc(S(N)(=O)=O)cc3)cccc12)NC[C@H](O)COc1ccccc1-c1cccs1` [Example 189], the “Emax (%) ± SEM” value under setting [1] stood at 64.5 ± 1.7%.

For the molecule `CC(C)(Cc1c[nH]c2cc(C=CC#N)ccc12)NC[C@H](O)COc1ccccc1-c1cccs1` [Example 190], under setting [1], the “Emax (%) ± SEM” value worked out at 69.3 ± 1.3%. Take `CC(C)(Cc1c[nH]c2ccccc12)NC[C@H](O)COc1ccccc1-c1ccc(S(N)(=O)=O)s1` [Example 191]: the “Emax (%) ± SEM” value under setting [1] is recorded as 85.6 ± 7.8%. In the case of `CC(C)(NC[C@H](O)COc1ccccc1-c1cccs1)C(=O)N1CCc2ccccc21` [Example 192], the “Emax (%) ± SEM” value under setting [1] is given as 55.6 ± 6.0%.

For `CC(C)(NC[C@H](O)COc1ccccc1-c1ccon1)C(=O)N1CCc2ccccc21` [Example 193], under setting [1], the “Emax (%) ± SEM” value is listed as 32.0 ± 5.5%. `C[C@@H](Cc1c[nH]c2c(F)cc(F)cc12)NC[C@H](O)COc1ccccc1-c1cccs1` [Example 194] displayed a maximal effect (Emax) under setting [2] of 25.6%. Under setting [3], `C[C@@H](CN1CCc2cc(F)c(Cl)cc21)NC[C@H](O)COc1ccccc1-c1cccs1` [Example 195] registered an Emax of 8.9%. Turning to `CC(Cc1cn(C)c2c(F)cc(F)cc12)NCC(O)COc1ccccc1-c1cccs1` (stereo not shown) [Example 197], the “Emax (%) ± SEM” value under setting [1] is recorded as 34.5 ± 4.2%.

Take `CC(Cc1c[nH]c2c(OCC#N)cccc12)NC[C@H](O)COc1ccccc1-c1ccno1` (stereo partly shown) [Example 199]: the Emax under setting [2] was 22.8%. `CC(C)(Cc1c[nH]c2c(OCC#N)cccc12)NC[C@H](O)COc1ccccc1-c1ccc(C#N)s1` [Example 202] had a maximal response (Emax) under setting [3] of 85%. Turning to `CC(C)(Cc1c[nH]c2c(OCC(=O)O)cccc12)NC[C@H](O)COc1ccccc1-n1cccc1` [Example 203], the maximal effect (Emax) under setting [3] turned out to be 73.8%. In the case of `CC(C)(Cc1c[nH]c2cc(C(=O)O)ccc12)NC[C@H](O)COc1ccccc1-c1nccs1` [Example 204], under setting [3], the Emax was found to be 67%. The molecule `CC(C)(CC1=CCc2c(Oc3ccc(C(N)=O)cn3)cccc21)NC[C@H](O)COc1ccccc1-c1cccs1` [Example 219] came in with an Emax (CHO, % intrinsic activity: maximal response divided by isoproterenol maximal response times 100, average of at least 3 runs) of 85.9 ± 9.4%.

As a reminder, the Emax is the size of the effect at its maximum, as opposed to the concentration needed.
